# Measurements as given in patent US9645154B2, “Method for detecting cancer cell” (ARKRAY, Inc., priority 2010, dated 2017).
# Legend:
# [1] = system: human gastric cancer cells (SNU-1); experiment: Aminolevulinic acid (with FeCl2 and ascorbic acid) labeling, fluorescence microscopy image analysis (positive rate); type: cell-based; conditions: hemolyzed, 0.3 mM, 60 min, 37° C., threshold value 198
# Excerpt: In accordance with the conventional method, cultured human prostate cancer cell line PC3 (DS Pharma Biomedical Co., Ltd.) was harvested with trypsin (Invitrogen). The human gastric cancer cell line SNU-1 (ATCC), which is a suspension cell line, was directly harvested without any trypsin treatment. The cell suspension of the harvested cancer cells was centrifuged, and the supernatant was removed. The cells were resuspended with Dulbecco's PBS (+) (Nissui Pharmaceutical Co., Ltd.) and centrifuged, and the supernatant was removed again.
# The number of the cells was counted using a hemacytometer in accordance with the conventional method, and then 10^5 to 10^6 cells per sample (cell suspension) was aliquoted. The sample was centrifuged to remove the supernatant. […] The image was captured with a fluorescence microscope (Nikon Corp.).
# The wavelengths for the fluorescence filter set: EX (excitation wavelength): 402±7.5, DM: 430 or longer, BA (fluorescence wavelength): 625±15.
# The acquired images were analyzed using an image analysis software NIS-ELEMENTS (trade name, Nikon Corp.) to evaluate the fluorescence intensity of the cell. […]
# [2] = system: human breast adenocarcinoma cells (MCF-7); experiment: Fluorescence values of cell suspension reacted with aminolevulinic acid (i-densy); type: cell-based; conditions: 1 mM, 37° C.
# Excerpt: In accordance with the conventional method, human breast adenocarcinoma cells (cell line name: MCF-7; DS Pharma Biomedical Co., Ltd.) in culture was harvested with trypsin (Invitrogen). The cancer cell suspension harvested was centrifuged, and the supernatant was removed. The cells were resuspended with Dulbecco's PBS (+) (Nissui Pharmaceutical Co., Ltd.) and centrifuged, and the supernatant was removed again.
# The number of the cells was counted using a hemacytometer in accordance with the conventional method, and then 2.8×10^5 cells per sample was aliquoted. […]
# The fluorescence values of the cell suspension were measured using an i-densy (ARKRAY, Inc) at 15 minutes, 30 minutes, 60 minutes and 90 minutes after the start of the reaction. Conditions for fluorescence value measurement are as follows: 40° C. in the temperature regulated and light-intensity mode, Gain “3”, LED1 (390±20 nm for excitation)—PD3 (642.5±57.5 nm for detection).
# In FIG. 7, the vertical axis represents fluorescence values, and the horizontal axis represents the reaction time. The solid squares represent fluorescence values obtained from the sample using Dulbecco's PBS (−) containing no Mg and Ca ions. The solid triangles represent fluorescence values obtained from the sample using Dulbecco's PBS (+) containing Mg and Ca ions. […]
smiles,measurement,setting,value
"NCC(=O)CCC(=O)O [aminolevulinic acid, 5-amino-4-oxopentanoic acid]",Positive rate (Cancer cells),[1],81.6%
same,reactivity of aminolevulinic acid (fluorescence values of the cell suspension),"[2]; 15 to 90 minutes, Dulbecco's PBS (+) containing Mg and Ca ions versus PBS (−), FIG. 7",can be improved
same,reactivity of aminolevulinic acid (fluorescence values of the cell suspension),"[2]; Dulbecco's PBS (+) with Mg and Ca ions plus 10 μM ENDO-PORTER, FIG. 8",further improves the reactivity
